Test results reported in patent publication US20120283096A1, “AGENT FOR IMPROVING PLANT GROWTH, SEEDS, AND METHOD FOR IMPROVING PLANT GROWTH” (Incorporated Administrative Agency National Agricu lture …, priority 2010, published 2012).

Assays:
paddy rice [1] = experiment: Effect of sulfate ions in paddy soil on seedling establishment (Example 1-1, FIG. 1); type: in vivo
Procedure: The effect of concentrations of sulfate ions, which serve as a substrate for sulfide ions, in the soil solution on the percentage of seedling establishment were examined for each of the following cases: unsterilized paddy soil placed at a constant temperature of 20° C.; unsterilized paddy soil placed at a constant temperature of 30° C., unsterilized paddy soil placed in an outdoor location (at a mean temperature of 25.4° C. for the duration of examination); and sterilized paddy soil placed at a constant temperature of 20° C.
First, ammonium sulfate solutions in different concentrations were added to samples of paddy humid soil (obtained from a paddy field in Chikugo City, Fukuoka Prefecture, Japan; refrigerated in the form of humid soil until just before its use) with a soil-to-liquid ratio of 1:1.5, so that the resulting supernatant liquids above the samples of soil thus adjusted had varying concentrations of sulfate ions. The amounts of ammonium sulfate added to the samples of soil were equivalent to 0, 2, 4, 7, 10, 15, and 20 g/m^2 in terms of nitrogen, respectively, on the condition that the weight of dry soil is 100 kg/m^2. At the same time as ammonium sulfate, potassium in an amount of 5 g/m^2 in terms of potassium oxide was added as potassium chloride. Before the addition of the solutions to the samples of soil, some of the soil had been sterilized by being autoclaved for one hour at 121° C.
Each of the samples of soil thus adjusted was placed into a container (in the shape of a cylinder approximately 7 cm in diameter) in an amount equivalent to 120 g of dry soil, shaken for approximately one hour, and left at rest for two days at 4° C. On this condition, the resulting soil layer was approximately 4 cm thick and the resulting water layer above the soil surface was approximately 1 cm thick. Paddy rice seeds (branded as Hinohikari) were sterilized by being soaked in 70% ethanol for ten minutes and then in a fivefold diluted solution of sodium hypochlorite (purchased from Wako Pure Chemical Industries, Ltd.) for ten minutes. The paddy rice seeds were then slightly germinated by being soaked in water at 10° C. for five days and then in water at 30° C. for two days. The germinated unhusked rice thus obtained was used in the following testing.
Nine paddy rice seeds per container were planted at a depth of 15 mm at intervals of approximately 2 cm in each of the samples of soil thus adjusted, and the seed holes were closed by lightly shaking the sample of soil. The samples of unsterilized soil were left at rest at a constant temperature of 20° C. or 30° C., and the samples of sterilized soil were left at a constant temperature of 20° C. in incubators in which fluorescent lights were on for twelve hours per day. […]

sulfide ion generation = experiment: Blackening (ferric sulfide) of areas around paddy seeds versus sulfate ion concentration (FIG. 2); conditions: unsterilized soil, 30° C., one week after seeding, supernatant concentration
Procedure: In the same manner as above, ammonium sulfate was applied to samples of unsterilized soil in amounts of 0, 0.75, 1.5, and 3 mol/m^2, respectively, and the samples of unsterilized soil were placed at rest at a constant temperature of 30° C. The supernatant liquids obtained after shaking the samples of soil thus adjusted had sulfate ion concentrations shown in FIG. 2. However, since methylene blue decolorizes in a reduced state, methylene blue weighing 0.1% of dry soil was added to each sample of soil so that a reduced state of the soil could be detected. […] It should be noted that methylene blue is known to decolorize at an oxidation-reduction potential of 0.05 V or lower with a pH of approximately 6. […] Therefore, it is judged that in this experimental environment, an oxidation-reduction potential as normalized with a pH of 7 is at least temporarily 0 mV or lower.

decay of paddy seeds = experiment: Decay-inhibiting effect in tank farming without soil (Example 3); conditions: seeds covered with substance, soaked two weeks in water at 30° C.
Procedure: (§1) The decay-inhibiting effect of molybdenum-containing substances in tank farming without soil was examined.
(§2) The possibility of growth and the inhibition of decay were determined in the same manner as above.

paddy rice [2] = experiment: Seedling establishment of coated paddy seeds in submerged soil containers (Examples 4-1 to 4-4b, FIGS. 11, 14-19c); type: in vivo
Procedure: The germinated paddy seeds were soaked for one minute in a tenfold diluted solution of a commercially available laundry starch (manufactured by Rocket Soap Co., Ltd.; My Laundry Starch) containing approximately a little less than 10% by weight of polyvinyl alcohol, centrifuged at 1000 rpm for removal of the extra solution, and, immediately after that, lightly covered with different amounts of ammonium molybdophosphate, whereby seeds with different amounts of ammonium molybdophosphate were prepared.
It should also be noted that in each of FIGS. 14 through 15b, the horizontal axis represents the number of moles (mmol) of molybdenum or tungsten that adhered per gram of dry seed. In each of FIGS. 14 through 15b, the dots correspond to the numbers of moles of 0, 0.02, 0.05, 0.1, 0.2, 0.5, 1, and 2 mmol, starting from the left.
It should be noted that in each of FIGS. 16 through 18, the horizontal axis represents the number of moles (mmol) of molybdenum that adhered per gram of dry seed. In each of FIGS. 16 through 18, the dots correspond to the numbers of moles of 0, 0.02, 0.05, 0.1, 0.2, 0.5, 1, and 2 mmol, starting from the left.
It should be noted that in FIG. 19a, the horizontal axis represents the number of moles (mmol) of molybdenum that adhered per gram of dry seed. In FIG. 19a, the dots correspond to the numbers of moles of 0, 0.02, 0.05, 0.1, 0.2, 0.5, 1, and 2 mmol, starting from the left.
The resulting seeds were allowed to spend time in a sufficiently wet condition so that the iron rusted, and then allowed to further spend overnight. […] Six containers were allotted for each condition, and the proportion of seedling establishment and the standard error were examined. It should be noted that in FIG. 19b, the horizontal axis represents the number of moles (mmol) of molybdenum that adhered per gram of dry seed. In FIG. 19b, the dots correspond to the numbers of moles of 0, 0.02, 0.05, 0.1, 0.2, 0.5, 1, and 2 mmol, starting from the left.
Six containers were allotted for each condition, and the proportion of seedling establishment and the standard error were examined. It should be noted that in FIG. 19c, the horizontal axis represents the actual weight ratios of 25 wt % calcium peroxide that adhered with respect to the weight of dry seed. In FIG. 19c, the dots correspond to the actual weight ratios of 25 wt % calcium peroxide of 0, 0.01, 0.02, 0.05, 0.1, 0.2, 0.5, and 1 time, starting from the left.

soybean = experiment: Seedling establishment of soybean seeds submerged for two days (Example 6a-1, FIG. 20e); type: in vivo; conditions: 0.01 mmol to 0.5 mmol molybdenum per gram of dry seed, 25° C., versus untreated seeds
Procedure: Soil was prepared in the same manner as in Example 6-1. Next, soybean seeds (branded as Fukuyutaka) not subjected to treatment such as soaking in advance were soaked for one minute in a tenfold diluted solution of a commercially available laundry starch (manufactured by Rocket Soap Co., Ltd.; My Laundry Starch) containing approximately a little less than 10% by weight of polyvinyl alcohol. Then, the seeds were spin-dried for thirty seconds in a commercially available washing machine for removal of the extra water. […] These seeds were buried so that the upper edge of each seed was at the same height as the soil surface. In an artificially-lit (amount of light 0.4 mmol/m^2/s, lit for twelve hours per day) room at 25° C., water was added immediately after seeding so that the surface water was 15 mm high. After two days, the surface water was sucked up with a pipette for removal. Six containers were allotted for each condition, and the proportion of seedling establishment (proportion of individual plants that survived) was measured two weeks after seeding. It should be noted that in FIG. 20e, the horizontal axis represents the number of moles (mmol) of molybdenum that adhered per gram of dry seed. In FIG. 20e, the dots correspond to the numbers of moles of 0 (UNTREATED), 0.01, 0.02, 0.05, 0.1, 0.2, and 0.5 mmol, starting from the left. […]

paddy rice [3] = experiment: Seedling establishment of coated paddy seeds planted in a paddy field (Example 4-5, FIG. 22); type: in vivo; conditions: dry seeds coated with clay plus 0.1 mmol/g molybdenum; kept submerged, about one month after seeding; versus WITHOUT MATERIAL and oxygen generating agent (Cal)
Procedure: Dry paddy seeds (branded as Hinohikari) were prepared.
Separately, dry seeds (WITHOUT MATERIAL) coated solely with clay containing no molybdenum were also prepared. Furthermore, dry seeds (Cal) coated with an oxygen generating agent (Calper Powder 16, Hodogaya UPL Co., Ltd.) the same weight per dry seeds were also prepared. Calper Powder 16 is an oxygen generating agent composed mainly of calcium peroxide.
These dry seeds were planted in puddled soil in a paddy field in Chikugo City, Fukuoka Prefecture, by using a simultaneous puddling and planting point sowing machine. By preparing the seeds as described above and planting them by using a point sowing machine, the amount of seeding per unit area of the paddy field can be substantially uniformed. It should be noted that prior to soil puddling, 4 g/m^2 of ammonium sulfate as nitrogen and potassium sulfate containing potassium equivalent to 8 g/m^2 as potassium oxide had been applied to the paddy field. After seeding, the seeds were kept submerged without draining the water.

barley = experiment: Seedling establishment of barley seeds in humid soil (Example 6-1, FIG. 20a); type: in vivo; conditions: 0.01 mmol to 0.5 mmol molybdenum per gram of dry seed, 20° C., after two weeks
Procedure: (§3) As in Example 4-1, ammonium sulfate in an equivalent amount of 10 g/m^2 in terms of nitrogen and potassium chloride equivalent to 5 g/m^2 of potassium as potassium oxide were added as a solution to paddy humid soil in terms of 100 kg/m^2 of dry soil with a soil-to-liquid ratio of 0.7. The soil was placed into each container (in the shape of a cylinder approximately 7 cm in diameter) in an amount equivalent to 100 g of dry soil. The soil surface was flattened by giving it a slight press with a flat plate. Then, the soil was left at rest for one day at 4° C. […] The seeds were then half-buried in the soil. After that, at a constant temperature of 20° C., the water level was kept by adding water to such an extent that the seeds were slightly covered with water. Six containers were allotted for each condition, and the proportion of seedling establishment (proportion of individual plants that survived) was measured after two weeks. It should be noted that in each of FIGS. 20a and 20b, the horizontal axis represents the number of moles (mmol) of molybdenum that adhered per gram of dry seed. In each of FIGS. 20a and 20b, the dots correspond to the numbers of moles of 0, 0.01, 0.02, 0.05, 0.1, 0.2, and 0.5 mmol, starting from the left. […]

paddy seeds = experiment: Possibility of growth of paddy seeds in tank farming without soil (Example 3); conditions: in vivo
Procedure: as §1, §2

wheat = experiment: Seedling establishment of wheat seeds in humid soil (Example 6-1, FIG. 20b); type: in vivo; conditions: 0.01 mmol to 0.5 mmol molybdenum per gram of dry seed, 20° C., after two weeks
Procedure: as §3

SMILES: N.N.O=S(=O)(O)O [sulfate ions, ammonium sulfate]
- seedling establishment (paddy rice [1]; sterilized soil, 20° C., regardless of sulfate ion concentration): no decrease in seedling establishment
- seedling establishment (paddy rice [1]; unsterilized soil, constant 20° C., sulfate ion concentration higher than 2 mM, after 21 days): substantially no seedling establishment
- proportion of seedling establishment (paddy rice [1]; unsterilized soil, constant 30° C. or outdoor, sulfate ion concentration higher than 3 mM, after 21 days): ≤ 10%
- proportion of seedling establishment (paddy rice [1]; unsterilized soil, sulfate ion concentration of 1 mM, regardless of the conditions (20° C., 30° C., outdoor), after 21 days): drastic decreases in proportion of seedling establishment
- sulfate ion concentration at which a blackened portion (ferric sulfide) appears around the seed (sulfide ion generation): ≥ 0.91 mM

SMILES: [O]=[Mo](=[O])=[O] [Molybdenum oxide, Molybdenum oxide (VI)]
- Inhibition of decay, Amount of molybdenum or tungsten added to seed (decay of paddy seeds): <0.01 mmol/g
- molybdenum amount leading to improvements in seedling establishment (paddy rice [2]; dry seeds coated with mixture with reduced iron (half the weight of dry seeds), 30° C., FIG. 19b): ≥ 0.5 mmol/g
- proportion of seedling establishment (paddy rice [2]; dry seeds, mixture of 0.1 mmol/g molybdenum oxide and 25 wt % calcium peroxide at 0.1 or less time the weight of dry seed, 30° C.): ≥ 40%
- proportion of seedling establishment (paddy rice [2]; mixture of 0.1 mmol/g molybdenum oxide and 25 wt % calcium peroxide at 0.2 to 0.5 time the weight of dry seed, versus absence of molybdenum oxide): higher proportion of seedling establishment
- proportion of seedling establishment (soybean): improvements in proportion of seedling establishment
- seedling establishment (paddy rice [3]): obvious improvements in seedling establishment
- proportion of seedling establishment (barley): improvements in proportion of seedling establishment
- Possibility of growth, Amount of molybdenum or tungsten added to seed (paddy seeds): 0.07 mmol/g
- proportion of seedling establishment (wheat): improvements in proportion of seedling establishment
